Laboratory results: patent publication US20240317721A1, “PYRAZOLYL DERIVATIVES AS INHIBITORS OF THE KRAS MUTANT PROTEIN” (NOVARTIS AG, priority 2021, published 2024)

Target: KRasG12C (M1-K169, biotinylated on the N-terminus) (Homo sapiens (Human), UniProt P01116, G12C)
Assay: Covalent competition assay: scintillation proximity assay (SPA) quantifying covalent modification of KRASG12C
Format: binding
Details: competition with radiolabeled covalent probe (Compound B/Compound A), 2 hours incubation, 10 nM KRasG12C
Summary of the method: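 Scintillation proximity readout after streptavidin bead capture (30 min) of biotinylated KRasG12C(M1-K169):GDP, 10 nM final, which was covalently labelled over 2 h by 25 nM radio-probe plus 475 nM cold probe unless blocked by compound.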

| IC50 [µM] | SMILES |
| --- | --- |
| > 50 | C=CC(=O)N1CC2(CC(n3nc(N4CCN(C(=O)C(F)F)CC4(C)C)c(-c4c(Cl)c(C)cc5[nH]ncc45)c3C)C2)C1 (single isomer, unassigned) [Example 128a, 1-(6-(4-(5-chloro-6-methyl-1H-indazol-4-yl)-3-(4-(2,2-difluoroacetyl)-2,2-dimethylpiperazin-1-yl)-5-methyl-1H-pyrazol-1-yl)-2-azaspiro[3.3]heptan-2-yl)prop-2-en-1-one] |
| 2 | C=CC(=O)N1CC2(CC(n3nc(N4CC[C@@H](CN5CCCN(C(C)=O)CC5)CC4(C)C)c(-c4c(Cl)c(Cl)cc5[nH]ncc45)c3C)C2)C1 (single isomer, unassigned) [Example 315a] |
| 0.009 | C=CC(=O)N1CC2(CC(n3nc(N4CC[C@@H](CN5CC6(CCN(S(C)(=O)=O)C6)C5)CC4(C)C)c(-c4c(Cl)c(Cl)cc5[nH]ncc45)c3C)C2)C1 (single isomer, unassigned) [Example 297b] |
| 0.007 | C=CC(=O)N1CC2(CC(n3nc(N4CC[C@@H](CN5C[C@H](O)C[C@H]5COC)CC4(C)C)c(-c4c(Cl)c(Cl)cc5[nH]ncc45)c3C)C2)C1 (single isomer, unassigned) [Example 286b] |
| 0.024 | C=CC(=O)N1CC2(CC(n3nc(N4CCN(C5CCOC5)CC45CCC5)c(-c4c(Cl)c(C)cc5[nH]ncc45)c3C)C2)C1 (single isomer, unassigned) [Example 132c, 1-(6-(4-(5-chloro-6-methyl-1H-indazol-4-yl)-5-methyl-3-(8-(tetrahydrofuran-3-yl)-5,8-diazaspiro[3.5]nonan-5-yl)-1H-pyrazol-1-yl)-2-azaspiro[3.3]heptan-2-yl)prop-2-en-1-one] |
| 0.019 | C=CC(=O)N1CC2(CC(n3nc(N4CCN(C[C@H]5CCCO5)CC45CCC5)c(-c4c(Cl)c(C)cc5[nH]ncc45)c3C)C2)C1 (single isomer, unassigned) [Example 153b] |
| < 0.005 | C=CC(=O)N1CC2(CC(n3nc(N4CC[C@@H](CN5CCN(C6COC6)C[C@@H]5CO)CC4(C)C)c(-c4c(Cl)c(Cl)cc5[nH]ncc45)c3C)C2)C1 (single isomer, unassigned) [Example 290b] |
| 0.111 | C=CC(=O)N1CC2(CC(n3nc(N4CCN(C(C)(C)CO)CC45CCC5)c(-c4c(Cl)c(C)cc5[nH]ncc45)c3C)C2)C1 (single isomer, unassigned) [Example 190b, 1-(6-(4-(5-Chloro-6-methyl-1H-indazol-4-yl)-3-(8-(1-hydroxy-2-methylpropan-2-yl)-5,8-diazaspiro[3.5]nonan-5-yl)-5-methyl-1H-pyrazol-1-yl)-2-azaspiro[3.3]heptan-2-yl)prop-2-en-1-one] |
| 0.015 | C=CC(=O)N1CC2(CC(n3nc(N4CCN(C[C@@H]5COCCO5)CC4(C)C)c(-c4c(Cl)c(Cl)cc5[nH]ncc45)c3C)C2)C1 (single isomer, unassigned) [Example 172b] |
| 0.932 | C=CC(=O)N1CC2(CC(n3nc(N4CCC(CN5CCS(=O)(=O)CC5)CC4(C)C)c(-c4c(Cl)c(Cl)cc5[nH]ncc45)c3C)C2)C1 (single isomer, unassigned) [Example 235a, 1-(6-(4-(5,6-dichloro-1H-indazol-4-yl)-3-(4-((1,1-dioxidothiomorpholino)methyl)-2,2-dimethylpiperidin-1-yl)-5-methyl-1H-pyrazol-1-yl)-2-azaspiro[3.3]heptan-2-yl)prop-2-en-1-one] |
| 6.1 | C=CC(=O)N1CC2(CC(n3nc(N4CCN(C(C)=O)CC4(C)C)c(-c4c(Cl)c(C)cc5[nH]ncc45)c3C)C2)C1 (single isomer, unassigned) [Example 18a, 1-(6-(3-(4-acetyl-2,2-dimethylpiperazin-1-yl)-4-(5-chloro-6-methyl-1H-indazol-4-yl)-5-methyl-1H-pyrazol-1-yl)-2-azaspiro[3.3]heptan-2-yl)prop-2-en-1-one] |
| > 5 | C=CC(=O)N1CC2(CC(n3nc(N4CC[C@@H](CN5CCN(C6COC6)C6COCC65)CC4(C)C)c(-c4c(Cl)c(Cl)cc5[nH]ncc45)c3C)C2)C1 (single isomer, unassigned) [Example 280a, 1-(6-(4-(5,6-dichloro-1H-indazol-4-yl)-3-((R)-2,2-dimethyl-4-(((4aS*,7aR*)-4-(oxetan-3-yl)hexahydrofuro[3,4-b]pyrazin-1(2H)-yl)methyl)piperidin-1-yl)-5-methyl-1H-pyrazol-1-yl)-2-azaspiro[3.3]heptan-2-yl)prop-2-en-1-one] |
| 0.405 | C=CC(=O)N1CC2(CC(n3nc(N4CCC(CN5CCOCC5)CC4(C)COC)c(-c4c(Cl)c(Cl)cc5[nH]ncc45)c3C)C2)C1 (single isomer, unassigned) [Example 221b, 1-(6-(4-(5,6-dichloro-1H-indazol-4-yl)-3-(2-(methoxymethyl)-2-methyl-4-(morpholinomethyl)piperidin-1-yl)-5-methyl-1H-pyrazol-1-yl)-2-azaspiro[3.3]heptan-2-yl)prop-2-en-1-one] |
| 0.016 | C=CC(=O)N1CC2(CC(n3nc(N4CCN(C(=O)OCCOC)CC45CCC5)c(-c4c(Cl)c(C)cc5[nH]ncc45)c3C)C2)C1 (single isomer, unassigned) [Example 122b, 2-methoxyethyl 5-(1-(2-acryloyl-2-azaspiro[3.3]heptan-6-yl)-4-(5-chloro-6-methyl-1H-indazol-4-yl)-5-methyl-1H-pyrazol-3-yl)-5,8-diazaspiro[3.5]nonane-8-carboxylate] |
| 17.8 | C=CC(=O)N1CC2(CC(n3nc(N4CCN(C5COC5)CC45CCC5)c(-c4c(Cl)c(C)cc5[nH]ncc45)c3C)C2)C1 (single isomer, unassigned) [Example 54a, 1-(6-(4-(5-Chloro-6-methyl-1H-indazol-4-yl)-5-methyl-3-(8-(oxetan-3-yl)-5,8-diazaspiro[3.5]nonan-5-yl)-1H-pyrazol-1-yl)-2-azaspiro[3.3]heptan-2-yl)prop-2-en-1-one] |
| 0.038 | C=CC(=O)N1CC2(CC(n3nc(N4CCN(C5COC5)CC4(C)C)c(-c4c(Cl)c(C)cc5[nH]ncc45)c3C)C2)C1 (single isomer, unassigned) [Example 67b, 1-(6-(4-(5-chloro-6-methyl-1H-indazol-4-yl)-3-(2,2-dimethyl-4-(oxetan-3-yl)piperazin-1-yl)-5-methyl-1H-pyrazol-1-yl)-2-azaspiro[3.3]heptan-2-yl)prop-2-en-1-one] |
| 0.005 | C=CC(=O)N1CC2(CC(n3nc(N4CC[C@@H](CN5CCC6COCC65)CC4(C)C)c(-c4c(C)c(Cl)cc5[nH]ncc45)c3C)C2)C1 (single isomer, unassigned) [Example 306b, 1-(6-(4-(6-chloro-5-methyl-1H-indazol-4-yl)-3-((R)-4-(((3aR*,6aR*)-hexahydro-1H-furo[3,4-b]pyrrol-1-yl)methyl)-2,2-dimethylpiperidin-1-yl)-5-methyl-1H-pyrazol-1-yl)-2-azaspiro[3.3]heptan-2-yl)prop-2-en-1-one] |
| > 5 | C=CC(=O)N1CC2(CC(n3nc(N4CCN(CC(C)(C)O)C[C@@]4(C)C(F)F)c(-c4c(Cl)c(C)cc5[nH]ncc45)c3C)C2)C1 (single isomer, unassigned) [Example 166a] |
| 0.008 | C=CC(=O)N1CC2(CC(n3nc(N4CCN(C5CCOCC5)C[C@@]4(CC)C(F)F)c(-c4c(Cl)c(C)cc5[nH]ncc45)c3C)C2)C1 (single isomer, unassigned) [Example 156b] |
| 0.019 | C=CC(=O)N1CC2(CC(n3nc(N4CC[C@@H](CN5CCC6COCC65)CC4(C)C)c(-c4c(C)c(Cl)cc5[nH]ncc45)c3C)C2)C1 (single isomer, unassigned) [Example 305b, 1-(6-(4-(6-chloro-5-methyl-1H-indazol-4-yl)-3-((R)-4-(((3aR*,6aR*)-hexahydro-1H-furo[3,4-b]pyrrol-1-yl)methyl)-2,2-dimethylpiperidin-1-yl)-5-methyl-1H-pyrazol-1-yl)-2-azaspiro[3.3]heptan-2-yl)prop-2-en-1-one] |
| 0.015 | C=CC(=O)N1CC2(CC(n3nc(N4CCN(CC5COCCOC5)CC45CCC5)c(-c4c(Cl)c(C)cc5[nH]ncc45)c3C)C2)C1 (single isomer, unassigned) [Example 185b, 1-(6-(3-(8-((1,4-dioxepan-6-yl)methyl)-5,8-diazaspiro[3.5]nonan-5-yl)-4-(5-chloro-6-methyl-1H-indazol-4-yl)-5-methyl-1H-pyrazol-1-yl)-2-azaspiro[3.3]heptan-2-yl)prop-2-en-1-one] |
| 0.015 | C=CC(=O)N1CC2(CC(n3nc(N4CCN(C[C@H]5COCCO5)CC45CCC5)c(-c4c(Cl)c(C)cc5[nH]ncc45)c3C)C2)C1 (single isomer, unassigned) [Example 189b] |
| > 5 | C=CC(=O)N1CC2(CC(n3nc(N4CCN(CC(C)(C)O)CC45CCC5)c(-c4c(Cl)c(C)cc5[nH]ncc45)c3C)C2)C1 (single isomer, unassigned) [Example 160a, 1-(6-(4-(5-Chloro-6-methyl-1H-indazol-4-yl)-3-(8-(2-hydroxy-2-methylpropyl)-5,8-diazaspiro[3.5]nonan-5-yl)-5-methyl-1H-pyrazol-1-yl)-2-azaspiro[3.3]heptan-2-yl)prop-2-en-1-one] |

| SMILES | IC50 [µM] |
| --- | --- |
| C=CC(=O)N1CC2(CC(n3nc(N4CCC(CN5CC6CC(C5)O6)CC4(C)C)c(-c4c(Cl)c(Cl)cc5[nH]ncc45)c3C)C2)C1 (single isomer, unassigned) [Example 228b, 1-(6-(3-(4-((6-oxa-3-azabicyclo[3.1.1]heptan-3-yl)methyl)-2,2-dimethylpiperidin-1-yl)-4-(5,6-dichloro-1H-indazol-4-yl)-5-methyl-1H-pyrazol-1-yl)-2-azaspiro[3.3]heptan-2-yl)prop-2-en-1-one] | 0.281 |
| C=CC(=O)N1CC2(CC(n3nc(N4[C@H]5CC[C@@H]4CN(C)CC5)c(-c4c(Cl)c(C)cc5[nH]ncc45)c3C)C2)C1 [Example 64, 1-(6-(4-(5-chloro-6-methyl-1H-indazol-4-yl)-5-methyl-3-((1R,6S)-3-methyl-3,9-diazabicyclo[4.2.1]nonan-9-yl)-1H-pyrazol-1-yl)-2-azaspiro[3.3]heptan-2-yl)prop-2-en-1-one] | 0.519 |
